Measurements: patent publication US20230248741A1, “Compositions and Methods for Lowering Triglycerides in a Subject with Reduced Kidney Function and Diabetes Mellitus” (Amarin Pharmaceuticals Ireland Limited, priority 2018, published 2023)

Columns and labels:
[1] = test system: subjects with Age-Associated Memory Impairment; assay: Safety and tolerability (TEAEs), 6-week AAMI study; format: in vivo, human
Experimental: All randomized subjects that received at least 1 dose of study medication were included in the Safety Population.
Safety evaluations were based on the safety population. Safety and tolerability were assessed in terms of AEs, vital signs, 12-lead ECG, clinical laboratory data, medical history, and study drug compliance. Safety and tolerability data were presented by treatment group.

[2] = Essential fatty acids in plasma and RBC by gas chromatography, 6-week AAMI study; format: in vivo, human
Experimental: Blood samples (10 mL) were collected at Visit 1 (screening) and at Visits 4, 5, and 6. Analysis was performed by MSR Lipid Analysis, Scottish Crop Research Institute, Dundee, UK. The screening sample acted as baseline for the EFA measurements. Lipid was extracted from plasma, serum, and RBC suspensions and converted into fatty acid methyl esters which were analyzed by gas chromatography to give fatty acid profiles as micrograms fatty acid per gram of sample (mFA/g) and normalized area percent.
RBC and plasma EFA data were collected at baseline, Day 14, 28, and 42 and summarized by visit for each treatment group. Change from baseline and percent change from baseline were also summarized. ANCOVA comparison of E-EPA dose groups and E-EPA versus placebo was performed.
Notable changes for these parameters occurred in the E-EPA treatment groups at Days 14, 28, and 42 compared to placebo.

CC/C=C\C/C=C\C/C=C\C/C=C\C/C=C\CCCC(=O)OCC [E-EPA, ethyl eicosapentaenoate]
subjects with nausea Possibly Related to the study drug ([1]; 1 g E-EPA cohort): two
TEAE Probably Related to the study drug ([1]; 1 g E-EPA, one subject): nausea
subjects with nausea Possibly Related to the study drug ([1]; 2 g E-EPA cohort): one
Serious Adverse Event (worsening epigastric chest pain), relation to study drug ([1]; 2 g E-EPA, one subject): unrelated to the study drug
subjects with nausea Possibly Related to the study drug ([1]; 4 g E-EPA cohort): two
TEAE Probably Related to the study drug ([1]; 4 g E-EPA, one subject): diarrhea
SAE reported ([1]; E-EPA 2 g treatment group): One
subjects discontinued due to TEAEs ([1]; E-EPA 2 g treatment group): 2 subjects
TEAEs reported ([1]; E-EPA treatment groups (1, 2, 4 g), placebo groups 34 events): 105 events
TEAEs Definitely Related to the study drug ([1]; all groups): No TEAEs were Definitely Related to the study drug
deaths during the study ([1]; all groups): no deaths
AA Plasma Mean change from Baseline ([2]; 1 g daily, Day 14): -9.7 µg/g
AA RBC Mean change from Baseline ([2]; 1 g daily, Day 14): -8.1 µg/g
DGLA Plasma Mean change from Baseline ([2]; 1 g daily, Day 14): -10.4 µg/g
DGLA RBC Mean change from Baseline ([2]; 1 g daily, Day 14): -2.7 µg/g
DHA Plasma Mean change from Baseline ([2]; 1 g daily, Day 14): -6.4 µg/g
DHA RBC Mean change from Baseline ([2]; 1 g daily, Day 14): -4.6 µg/g
DPAn-3 Plasma Mean change from Baseline ([2]; 1 g daily, Day 14): 7.5 µg/g
DPAn-3 RBC Mean change from Baseline ([2]; 1 g daily, Day 14): 0.9 µg/g
AA Plasma Mean change from Baseline ([2]; 1 g daily, Day 28): -11.3 µg/g
AA RBC Mean change from Baseline ([2]; 1 g daily, Day 28): -17.0 µg/g
DGLA Plasma Mean change from Baseline ([2]; 1 g daily, Day 28): -10.6 µg/g
DGLA RBC Mean change from Baseline ([2]; 1 g daily, Day 28): -3.8 µg/g
DHA Plasma Mean change from Baseline ([2]; 1 g daily, Day 28): -6.6 µg/g
DHA RBC Mean change from Baseline ([2]; 1 g daily, Day 28): -6.4 µg/g
DPAn-3 Plasma Mean change from Baseline ([2]; 1 g daily, Day 28): 8.9 µg/g
DPAn-3 RBC Mean change from Baseline ([2]; 1 g daily, Day 28): 3.3 µg/g
AA Plasma Mean change from Baseline ([2]; 1 g daily, Day 42): -8.7 µg/g
AA RBC Mean change from Baseline ([2]; 1 g daily, Day 42): -14.2 µg/g
DGLA Plasma Mean change from Baseline ([2]; 1 g daily, Day 42): -9.4 µg/g
DGLA RBC Mean change from Baseline ([2]; 1 g daily, Day 42): -3.5 µg/g
DHA Plasma Mean change from Baseline ([2]; 1 g daily, Day 42): -5.4 µg/g
DHA RBC Mean change from Baseline ([2]; 1 g daily, Day 42): -7.0 µg/g
DPAn-3 Plasma Mean change from Baseline ([2]; 1 g daily, Day 42): 11.3 µg/g
DPAn-3 RBC Mean change from Baseline ([2]; 1 g daily, Day 42): 6.5 µg/g
AA Plasma Baseline Mean ([2]; 1 g daily, baseline): 202.5 µg/g
AA RBC Baseline Mean ([2]; 1 g daily, baseline): 171.2 µg/g
DGLA Plasma Baseline Mean ([2]; 1 g daily, baseline): 51.2 µg/g
DGLA RBC Baseline Mean ([2]; 1 g daily, baseline): 23.0 µg/g
DHA Plasma Baseline Mean ([2]; 1 g daily, baseline): 73.1 µg/g
DHA RBC Baseline Mean ([2]; 1 g daily, baseline): 66.5 µg/g
DPAn-3 Plasma Baseline Mean ([2]; 1 g daily, baseline): 21.1 µg/g
DPAn-3 RBC Baseline Mean ([2]; 1 g daily, baseline): 34.1 µg/g
AA Plasma LS Mean, 1 or 2 g versus 4 g ([2]; 1 g versus 4 g): 4.2 µg/g
AA RBC LS Mean, 1 or 2 g versus 4 g ([2]; 1 g versus 4 g): 8.4 µg/g
DGLA Plasma LS Mean, 1 or 2 g versus 4 g ([2]; 1 g versus 4 g): 3.7 µg/g
DGLA RBC LS Mean, 1 or 2 g versus 4 g ([2]; 1 g versus 4 g): 1.5 µg/g
DHA Plasma LS Mean, 1 or 2 g versus 4 g ([2]; 1 g versus 4 g): -0.8 µg/g
DHA RBC LS Mean, 1 or 2 g versus 4 g ([2]; 1 g versus 4 g): 1.0 µg/g
DPAn-3 Plasma LS Mean, 1 or 2 g versus 4 g ([2]; 1 g versus 4 g): -15.1 µg/g
DPAn-3 RBC LS Mean, 1 or 2 g versus 4 g ([2]; 1 g versus 4 g): -6.2 µg/g
AA Plasma Mean change from Baseline ([2]; 2 g daily, Day 14): -13.9 µg/g
AA RBC Mean change from Baseline ([2]; 2 g daily, Day 14): -3.1 µg/g
DGLA Plasma Mean change from Baseline ([2]; 2 g daily, Day 14): -14.1 µg/g
DGLA RBC Mean change from Baseline ([2]; 2 g daily, Day 14): -2.6 µg/g
DHA Plasma Mean change from Baseline ([2]; 2 g daily, Day 14): -5.4 µg/g
DHA RBC Mean change from Baseline ([2]; 2 g daily, Day 14): -2.0 µg/g
DPAn-3 Plasma Mean change from Baseline ([2]; 2 g daily, Day 14): 17.4 µg/g
DPAn-3 RBC Mean change from Baseline ([2]; 2 g daily, Day 14): 5.6 µg/g
AA Plasma Mean change from Baseline ([2]; 2 g daily, Day 28): 21.6 µg/g
AA RBC Mean change from Baseline ([2]; 2 g daily, Day 28): -14.1 µg/g
DGLA Plasma Mean change from Baseline ([2]; 2 g daily, Day 28): -16.2 µg/g
DGLA RBC Mean change from Baseline ([2]; 2 g daily, Day 28): -4.5 µg/g
DHA Plasma Mean change from Baseline ([2]; 2 g daily, Day 28): -8.1 µg/g
DHA RBC Mean change from Baseline ([2]; 2 g daily, Day 28): -6.2 µg/g
DPAn-3 Plasma Mean change from Baseline ([2]; 2 g daily, Day 28): 19.4 µg/g
DPAn-3 RBC Mean change from Baseline ([2]; 2 g daily, Day 28): 9.4 µg/g
AA Plasma Mean change from Baseline ([2]; 2 g daily, Day 42): -27.3 µg/g
AA RBC Mean change from Baseline ([2]; 2 g daily, Day 42): -18.8 µg/g
DGLA Plasma Mean change from Baseline ([2]; 2 g daily, Day 42): -17.3 µg/g
DGLA RBC Mean change from Baseline ([2]; 2 g daily, Day 42): -5.3 µg/g
DHA Plasma Mean change from Baseline ([2]; 2 g daily, Day 42): -6.0 µg/g
DHA RBC Mean change from Baseline ([2]; 2 g daily, Day 42): -6.3 µg/g
DPAn-3 Plasma Mean change from Baseline ([2]; 2 g daily, Day 42): 19.3 µg/g
DPAn-3 RBC Mean change from Baseline ([2]; 2 g daily, Day 42): 13.2 µg/g
AA Plasma Baseline Mean ([2]; 2 g daily, baseline): 227.3 µg/g
AA RBC Baseline Mean ([2]; 2 g daily, baseline): 172.8 µg/g
DGLA Plasma Baseline Mean ([2]; 2 g daily, baseline): 53.5 µg/g
DGLA RBC Baseline Mean ([2]; 2 g daily, baseline): 23.0 µg/g
DHA Plasma Baseline Mean ([2]; 2 g daily, baseline): 75.1 µg/g
DHA RBC Baseline Mean ([2]; 2 g daily, baseline): 64.8 µg/g
DPAn-3 Plasma Baseline Mean ([2]; 2 g daily, baseline): 19.7 µg/g
DPAn-3 RBC Baseline Mean ([2]; 2 g daily, baseline): 33.2 µg/g
AA Plasma LS Mean, 1 or 2 g versus 4 g ([2]; 2 g versus 4 g): 15.6 µg/g
AA RBC LS Mean, 1 or 2 g versus 4 g ([2]; 2 g versus 4 g): 9.8 µg/g
DGLA Plasma LS Mean, 1 or 2 g versus 4 g ([2]; 2 g versus 4 g): 2.5 µg/g
DGLA RBC LS Mean, 1 or 2 g versus 4 g ([2]; 2 g versus 4 g): 1.5 µg/g
DHA Plasma LS Mean, 1 or 2 g versus 4 g ([2]; 2 g versus 4 g): 1.5 µg/g
DHA RBC LS Mean, 1 or 2 g versus 4 g ([2]; 2 g versus 4 g): 1.0 µg/g
DPAn-3 Plasma LS Mean, 1 or 2 g versus 4 g ([2]; 2 g versus 4 g): -9.5 µg/g
DPAn-3 RBC LS Mean, 1 or 2 g versus 4 g ([2]; 2 g versus 4 g): -2.5 µg/g
AA Plasma Mean (SD) change from Baseline ([2]; 4 g daily, Day 14): −27.2 (28.89) μg/g
AA RBC Mean (SD) change from Baseline ([2]; 4 g daily, Day 14): −15.7 (26.76) μg/g
DGLA Plasma Mean change from Baseline ([2]; 4 g daily, Day 14): -22.9 µg/g
DGLA RBC Mean change from Baseline ([2]; 4 g daily, Day 14): -5.3 µg/g
DHA Plasma Mean change from Baseline ([2]; 4 g daily, Day 14): -10.3 µg/g
DHA RBC Mean change from Baseline ([2]; 4 g daily, Day 14): -6.9 µg/g
DPAn-3 Plasma Mean change from Baseline ([2]; 4 g daily, Day 14): 24.5 µg/g
DPAn-3 RBC Mean change from Baseline ([2]; 4 g daily, Day 14): 5.4 µg/g
AA Plasma Mean (SD) change from Baseline ([2]; 4 g daily, Day 28): −43.7 (32.24) μg/g
AA RBC Mean (SD) change from Baseline ([2]; 4 g daily, Day 28): −22.8 (29.56) μg/g
DGLA Plasma Mean change from Baseline ([2]; 4 g daily, Day 28): -24.2 µg/g
DGLA RBC Mean change from Baseline ([2]; 4 g daily, Day 28): -7.1 µg/g
DHA Plasma Mean change from Baseline ([2]; 4 g daily, Day 28): -13.5 µg/g
DHA RBC Mean change from Baseline ([2]; 4 g daily, Day 28): -8.7 µg/g
DPAn-3 Plasma Mean change from Baseline ([2]; 4 g daily, Day 28): 29.7 µg/g
DPAn-3 RBC Mean change from Baseline ([2]; 4 g daily, Day 28): 12.4 µg/g
AA Plasma Mean (SD) change from Baseline ([2]; 4 g daily, Day 42): −48.3 (22.20) μg/g
AA RBC Mean (SD) change from Baseline ([2]; 4 g daily, Day 42): −34.4 (31.44) μg/g
DGLA Plasma Mean change from Baseline ([2]; 4 g daily, Day 42): -22.5 µg/g
DGLA RBC Mean change from Baseline ([2]; 4 g daily, Day 42): -8.0 µg/g
DHA Plasma Mean change from Baseline ([2]; 4 g daily, Day 42): -13.8 µg/g
DHA RBC Mean change from Baseline ([2]; 4 g daily, Day 42): -13.8 µg/g
DPAn-3 Plasma Mean change from Baseline ([2]; 4 g daily, Day 42): 32.0 µg/g
DPAn-3 RBC Mean change from Baseline ([2]; 4 g daily, Day 42): 16.2 µg/g
AA Plasma Baseline Mean (SD) ([2]; 4 g daily, baseline): 220.9 (42.80) μg/g
AA RBC Baseline Mean (SD) ([2]; 4 g daily, baseline): 171.0 (25.17) μg/g
DGLA Plasma Baseline Mean ([2]; 4 g daily, baseline): 57.1 µg/g
DGLA RBC Baseline Mean ([2]; 4 g daily, baseline): 24.0 µg/g
DHA Plasma Baseline Mean ([2]; 4 g daily, baseline): 78.8 µg/g
DHA RBC Baseline Mean ([2]; 4 g daily, baseline): 68.3 µg/g
DPAn-3 Plasma Baseline Mean ([2]; 4 g daily, baseline): 21.7 µg/g
DPAn-3 RBC Baseline Mean ([2]; 4 g daily, baseline): 34.5 µg/g
